Results on 6 compounds are retold here after patent publication US20070093448A1, “Complexes that consist of vitamin D compounds or analogs thereof with a 5Z,7E,10(19)-triene system and methylated derivatives of beta-cyclodextrin” (priority 2005, published 2007).

Series [1] can be described thus: Cyclodextrin solubility in water. It is filed as physicochemical.
For series [2] the following is noted: cited from earlier work.
The conditions of series [3]: cited from earlier work. This is another data set of the same source.
The nature of series [4]: Isomerization to the previtamin in the complexing with cyclodextrins (HPLC). It is filed as physicochemical. On the procedure: It is stirred for 2 hours at 22° C. and for 2 hours at 0° C. The solid is suctioned off and washed with 5 ml of cold water. After drying, 1.73 g (90% of theory) is obtained as a white solid. After HPLC (Stat. phase Chiracel JHRH 150×4.6 mm ID, detection 244 nm, eluant water/acetonitrile, flow: 1 ml/minute, gradient t0=70+30 v/v, linear increase of the gradient over 10 minutes t10 min to 60+40 v/v, isocratic t10 min-30 min 60+40 v/v), the solid, in addition to ergocalciferol (tRet.=26 minutes), contains 24% of the previtamin form (tRet.=23 minutes).
10 mg (0.024 mmol, MW 416.65) of calcitriol (dissolved in 100 μl of ethanol) is added in drops to the clear solution over 10 minutes. It is stirred for 2 hours at 22° C. and for 2 hours at 0-3° C., the solid is filtered off, and it is washed 2 times with 100 μl each of cold water. After drying at 20° C. and 0.5 mbar (24 hours), 26.6 mg of calcitriol-β-CD complex (71.5% of theory) is obtained. After the solid is dissolved in methanol and after an HPLC study (Stat. Phase Chiracel JHRH 150×4.6 mm ID, detection 244 nm, eluant water/acetonitrile, flow: 1 ml/minute, gradient t0=70+30 v/v, linear increase of the gradient over 10 minutes t10 min to 60+40 v/v, isocratic t10 min-30 min 60+40 v/v), the solid contains 23% of the previtamin form (tRet.=12 minutes) in addition to calcitriol (tRet.=17 minutes).
At 25° C., 100 mg (0.21 mmol) of (thiazol-2-yl)-26,27-dinor-9,10-secocholesta-5,7,10(19)-triene-1,3,25-triol (dissolved in 0.5 ml of ethanol) is added. It is stirred for 2 hours at room temperature, then for 2 hours at 0° C. The solid is filtered off, washed with 1 ml of cold water and dried. 290 mg (85% of theory) of solid is obtained. The content of the solid in the previtamin (compound 2) is 20% (HPLC, Stat. Phase Chiracel JHRH 150×4.6 mm ID, detection 244 nm, eluant water/acetonitrile, flow: 1 ml/minute, gradient to =70+30 v/v, linear increase of the gradient over 10 minutes t10 min to 60+40 v/v, isocratic t10 min-30 min 60+40 v/v, tRef. Compound 2: 11.65 minutes, tRef. Compound 1: 18.19 minutes). The sample preparation is carried out by dissolving the complex in 100% methanol.
For analytical study, the complexes can be dissolved in methanol or DMF and can be used in these solutions for the HPLC analysis (see 2.1). The content of the complexes that are obtained can be determined in comparison to the pure substance.

Series [5] in a line: Storage of compound 1 at room temperature. It is filed as physicochemical. The settings on record: after four months at room temperature.
Series [6] is described as follows: Stability of the DIMEB complex from Example 3 a) 1 and the non-complexed active ingredient. The class given is physicochemical. The source says: In Table 4 below, the stabilities of the DIMEB complex from Example 3 a) 1. and the non-complexed active ingredient are compiled: […]
Setting [7] is: Exp. 10: 15 d/40° C. aqueous, 80 μg of DIMEB complex per ml, compound 1 20 μg per ml.
[8] abbreviates: Exp. 11: 15 d/60° C. aqueous, 80 μg of DIMEB complex per ml, compound 1 20 μg per ml.
[9] abbreviates: Exp. 12: 15 d/80° C. aqueous, 80 μg of DIMEB complex per ml, compound 1 20 μg per ml.
Setting [10] is: Exp. 13: 30 d/40° C. aqueous, 80 μg of DIMEB complex per ml, compound 1 20 μg per ml.
[11] abbreviates: Exp. 14: 30 d/60° C. aqueous, 80 μg of DIMEB complex per ml, compound 1 20 μg per ml.

Marks after values point to notes of the source that are not given here.

Consider `COC[C@H]1O[C@@H]2O[C@H]3[C@H](O)[C@@H](OC)[C@@H](O[C@H]4[C@H](O)[C@@H](OC)[C@@H](O[C@H]5[C@H](O)[C@@H](OC)[C@@H](O[C@H]6[C@H](O)[C@@H](OC)[C@@H](O[C@H]7[C@H](O)[C@@H](OC)[C@@H](O[C@H]8[C@H](O)[C@@H](OC)[C@@H](O[C@H]1[C@H](O)[C@H]2OC)O[C@@H]8COC)O[C@@H]7COC)O[C@@H]6COC)O[C@@H]5COC)O[C@@H]4COC)O[C@@H]3COC` [DIMEB, Heptakis-(2,6-di-O-methyl)-β-cyclodextrin], for which the “CD-Water Solubility (g/100 ml), (25° C.)” value in series [1] came out at 25 g/100 ml. In addition, the “solubility of the DIMEB” value in series [2] (Saenger et al. 2002, Uekama, Irie 1987) was 60 g/100 ml of water. In addition, in series [2] (at 20° C., Saenger et al. 2002), the solubility in water is recorded as > 50 g/100 ml of water. In addition, in series [2] (while being heated, Saenger et al. 2002), the “solubility in water while being heated” value is < 1 g/100 ml. The “effects in intravenous administration” value in series [3] is “hemolytic effects”.
As for `C=C1CC[C@H](O)C/C1=C/C=C1\CCC[C@]2(C)[C@@H]([C@H](C)/C=C/[C@H](C)C(C)C)CC[C@@H]12` [Ergocalciferol, (5Z,7E,22E)-(3S)-9,10-secoergosta-5,7,10(19),22-tetraen-3-ol], the “previtamin formation / isomerization (in words)” value in series [4] is reported as “do not show any significant previtamin formation”. In addition, in series [4] (Table 1, without cyclodextrin), the “% Previtamin (in Solution)” value came to 0.2%.
`OC[C@H]1O[C@@H]2O[C@H]3[C@H](O)[C@@H](O)[C@@H](O[C@H]4[C@H](O)[C@@H](O)[C@@H](O[C@H]5[C@H](O)[C@@H](O)[C@@H](O[C@H]6[C@H](O)[C@@H](O)[C@@H](O[C@H]7[C@H](O)[C@@H](O)[C@@H](O[C@H]8[C@H](O)[C@@H](O)[C@@H](O[C@H]9[C@H](O)[C@@H](O)[C@@H](O[C@H]1[C@H](O)[C@H]2O)O[C@@H]9CO)O[C@@H]8CO)O[C@@H]7CO)O[C@@H]6CO)O[C@@H]5CO)O[C@@H]4CO)O[C@@H]3CO` [γ-Cyclodextrin, γ-cyclodextrin]: the “Cyclodextrin Solubility in Water (20° C.)” value in series [2] (20° C., source Szejtly 1988) is given as 23.3 g/100 ml.
In the case of `C=C1/C(=C\C=C2/CCC[C@]3(C)[C@@H]([C@H](C)CCC[C@H](O)c4nccs4)CC[C@@H]23)C[C@@H](O)C[C@@H]1O` [Compound 1, (thiazol-2-yl)-26,27-dinor-9,10-secocholesta-5,7,10(19)-triene-1,3,25-triol], in series [5], the previtamin content result is “about 2%”. The same compound came in with a content in series [5] (in comparison to fresh samples or samples stored under inert conditions) of 60%. The “% Previtamin (in Solution)” value in series [4] (Table 2, compound 1 without CD) was 0.2 (in %. The “% Previtamin” value in series [4] (Table 3, compound 1 without CD) was found to be 0.3%. Moreover, the By-Products was found to be 3.08% in series [6] (Exp. 2: 30 d 40° C.); 77.45% in series [6] (Exp. 3: 3 d/80° C./75% rel F.); 95.34% in series [6] (Exp. 4: 7 d/80° C./75% rel F.); 2.9% in series [6] (Exp. 5: 15 d/40° C./75% rel F.); 2.96% in series [6] (Exp. 6: 15 d/60° C./75% rel F.); 100% in series [6] (Exp. 7: 15 d/80° C./75% rel F.). The By-Products is on record as 3.00% in series [6] (Exp. 8: 30 d/40° C./75% rel F.); 2.98% in series [6] (Exp. 9: 30 d/60° C./75% rel F.); 2.92** % in series [6] (setting [7]); 18.69** % in series [6] (setting [8]); 96.72** % in series [6] (setting [9]); 3.20** % in series [6] (setting [10]). The values for the By-Products in series [6] (setting [11]) and in series [6] (Start) were 37.26** % and 3%, respectively. Also, the Purity in series [6] (Exp. 2: 30 d 40° C.) was 96.08%; in series [6] (Exp. 3: 3 d/80° C./75% rel F.), 22.55%; in series [6] (Exp. 4: 7 d/80° C./75% rel F.) it was 4.66%; in series [6] (Exp. 5: 15 d/40° C./75% rel F.), 96.61%; in series [6] (Exp. 6: 15 d/60° C./75% rel F.), 96.34%; in series [6] (Exp. 7: 15 d/80° C./75% rel F.), 0%. In addition, the Purity in series [6] (Exp. 8: 30 d/40° C./75% rel F.) stood at 96.7%; in series [6] (Exp. 9: 30 d/60° C./75% rel F.) it was 96.23%; in series [6] (setting [7]), 92.78%; in series [6] (setting [8]), 77.12%; in series [6] (setting [9]), 3.28%; in series [6] (setting [10]), 91.96%. Further, the values for the Purity in series [6] (setting [11]) and in series [6] (Start) were 59.76% and 96.12%, respectively.
Turning to `COC[C@H]1O[C@@H]2O[C@H]3[C@H](OC)[C@@H](OC)[C@@H](O[C@H]4[C@H](OC)[C@@H](OC)[C@@H](O[C@H]5[C@H](OC)[C@@H](OC)[C@@H](O[C@H]6[C@H](OC)[C@@H](OC)[C@@H](O[C@H]7[C@H](OC)[C@@H](OC)[C@@H](O[C@H]8[C@H](OC)[C@@H](OC)[C@@H](O[C@H]1[C@H](OC)[C@H]2OC)O[C@@H]8COC)O[C@@H]7COC)O[C@@H]6COC)O[C@@H]5COC)O[C@@H]4COC)O[C@@H]3COC` [TRIMEB], the “CD-Water Solubility (g/100 ml), (25° C.)” value in series [1] came to 200 g/100 ml.
With `C=C1/C(=C\C=C2/CCC[C@]3(C)[C@@H]([C@H](C)CCCC(C)(C)O)CC[C@@H]23)C[C@@H](O)C[C@@H]1O` [Calcitriol, (5Z,7E)-(1S,3R)-9,10-secocholesta-5,7,10(19)-triene-1,3,25-triol], the “previtamin formation / isomerization (in words)” value in series [4] was “do not show any significant previtamin formation”. Also, the “% Previtamin (in Solution)” value in series [4] (Table 1, without cyclodextrin) is reported as 0.3%.
